Assay results as given in ChEMBL document CHEMBL5291721, “A preclinical secondary pharmacology resource illuminates target-adverse drug reaction associations of marketed drugs” (Nat Commun, 2023).

What was measured:
[1] = biological target: Gamma-aminobutyric acid type B receptor subunit 1 (Homo sapiens, UniProt Q9UBS5)
[2] = biological target: T1, Peroxisome proliferator-activated receptor gamma (Homo sapiens, UniProt P37231); type: functional
T1 sequence (P37231 whole entry): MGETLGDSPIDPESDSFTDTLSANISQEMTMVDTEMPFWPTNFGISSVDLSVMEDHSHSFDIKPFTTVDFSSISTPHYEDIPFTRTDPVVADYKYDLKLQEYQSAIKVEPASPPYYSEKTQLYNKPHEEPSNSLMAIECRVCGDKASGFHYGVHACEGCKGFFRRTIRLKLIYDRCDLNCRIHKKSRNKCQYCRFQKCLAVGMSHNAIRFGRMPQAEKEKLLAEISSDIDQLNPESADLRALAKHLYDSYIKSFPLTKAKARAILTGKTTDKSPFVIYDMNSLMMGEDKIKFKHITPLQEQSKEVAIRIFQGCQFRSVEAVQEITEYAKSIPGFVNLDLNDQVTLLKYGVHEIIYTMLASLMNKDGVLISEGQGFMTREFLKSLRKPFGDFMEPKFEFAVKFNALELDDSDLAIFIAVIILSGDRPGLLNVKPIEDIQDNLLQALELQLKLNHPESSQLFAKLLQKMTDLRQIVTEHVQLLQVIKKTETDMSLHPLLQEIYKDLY

Glucocorticoid receptor [3] = biological target: T2, Glucocorticoid receptor (Homo sapiens, UniProt P04150)
T2 sequence (P04150 whole entry): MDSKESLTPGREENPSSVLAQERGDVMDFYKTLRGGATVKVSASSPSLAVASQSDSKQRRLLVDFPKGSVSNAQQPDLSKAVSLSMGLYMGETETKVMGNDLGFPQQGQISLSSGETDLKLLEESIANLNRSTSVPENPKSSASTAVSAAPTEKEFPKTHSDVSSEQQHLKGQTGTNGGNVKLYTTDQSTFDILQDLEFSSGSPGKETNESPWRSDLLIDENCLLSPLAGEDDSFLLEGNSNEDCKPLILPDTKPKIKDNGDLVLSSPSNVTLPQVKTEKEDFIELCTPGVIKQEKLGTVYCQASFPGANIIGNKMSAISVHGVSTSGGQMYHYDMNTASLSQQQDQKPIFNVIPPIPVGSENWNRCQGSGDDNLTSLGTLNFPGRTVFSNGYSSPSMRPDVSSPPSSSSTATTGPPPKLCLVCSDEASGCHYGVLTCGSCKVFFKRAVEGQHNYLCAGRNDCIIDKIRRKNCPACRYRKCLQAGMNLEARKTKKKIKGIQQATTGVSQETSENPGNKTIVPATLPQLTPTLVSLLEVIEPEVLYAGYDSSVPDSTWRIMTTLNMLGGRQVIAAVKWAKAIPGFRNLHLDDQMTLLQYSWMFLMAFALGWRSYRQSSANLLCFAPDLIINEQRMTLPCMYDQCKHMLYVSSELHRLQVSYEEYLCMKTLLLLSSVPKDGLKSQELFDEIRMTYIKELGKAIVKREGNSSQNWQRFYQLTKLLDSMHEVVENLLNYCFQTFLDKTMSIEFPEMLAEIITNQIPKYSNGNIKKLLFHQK

[4] = biological target: T3, Neuropeptide Y receptor type 2 (Homo sapiens, UniProt P49146)
T3 sequence (P49146 whole entry): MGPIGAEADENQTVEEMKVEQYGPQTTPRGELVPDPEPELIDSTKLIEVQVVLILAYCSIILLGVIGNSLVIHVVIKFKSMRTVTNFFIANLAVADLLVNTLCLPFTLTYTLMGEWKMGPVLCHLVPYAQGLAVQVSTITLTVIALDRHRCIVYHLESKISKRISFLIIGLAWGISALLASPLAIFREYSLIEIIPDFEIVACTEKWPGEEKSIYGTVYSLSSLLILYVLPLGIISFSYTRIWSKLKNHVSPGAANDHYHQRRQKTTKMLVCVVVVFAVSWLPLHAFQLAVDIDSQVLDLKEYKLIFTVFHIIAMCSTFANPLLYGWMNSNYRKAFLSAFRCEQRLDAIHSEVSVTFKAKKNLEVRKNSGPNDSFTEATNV

[5] = biological target: Sodium channel protein type 5 subunit alpha (Homo sapiens, UniProt Q14524); type: functional, cell-based
[6] = biological target: T4, Endothelin receptor type B (Homo sapiens, UniProt P24530)
T4 sequence (P24530 whole entry): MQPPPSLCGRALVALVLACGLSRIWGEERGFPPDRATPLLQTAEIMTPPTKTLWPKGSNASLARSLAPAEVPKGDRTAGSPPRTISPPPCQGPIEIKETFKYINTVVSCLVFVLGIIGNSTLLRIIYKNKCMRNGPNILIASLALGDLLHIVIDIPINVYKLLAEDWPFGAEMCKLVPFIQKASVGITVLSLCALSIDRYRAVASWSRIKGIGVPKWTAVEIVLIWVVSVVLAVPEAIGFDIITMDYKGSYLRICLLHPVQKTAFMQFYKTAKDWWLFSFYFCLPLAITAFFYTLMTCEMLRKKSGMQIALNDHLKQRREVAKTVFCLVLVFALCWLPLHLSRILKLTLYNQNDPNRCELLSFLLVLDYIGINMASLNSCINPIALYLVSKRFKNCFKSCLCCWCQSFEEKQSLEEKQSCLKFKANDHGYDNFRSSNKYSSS

Glucocorticoid receptor [7] = biological target: T2, Glucocorticoid receptor; type: functional
Mu-type opioid receptor = Mu-type opioid receptor (Homo sapiens, UniProt P35372); assay: biochemical; type: functional
Mu-type opioid receptor, sequence (P35372 whole entry): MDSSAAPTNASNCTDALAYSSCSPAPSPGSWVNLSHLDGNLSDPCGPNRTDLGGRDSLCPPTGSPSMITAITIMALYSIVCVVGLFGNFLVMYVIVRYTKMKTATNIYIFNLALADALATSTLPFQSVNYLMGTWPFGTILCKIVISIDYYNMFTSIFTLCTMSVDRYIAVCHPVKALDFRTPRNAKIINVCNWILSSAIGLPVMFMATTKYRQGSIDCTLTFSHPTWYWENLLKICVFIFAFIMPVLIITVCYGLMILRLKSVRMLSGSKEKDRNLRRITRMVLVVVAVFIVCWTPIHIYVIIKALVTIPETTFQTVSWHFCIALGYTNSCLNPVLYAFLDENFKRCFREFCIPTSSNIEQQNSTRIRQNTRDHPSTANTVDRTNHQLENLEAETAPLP

[8] = biological target: Vascular endothelial growth factor receptor 2 (Homo sapiens, UniProt P35968); type: functional
Vascular endothelial growth factor receptor 2, sequence (P35968 whole entry): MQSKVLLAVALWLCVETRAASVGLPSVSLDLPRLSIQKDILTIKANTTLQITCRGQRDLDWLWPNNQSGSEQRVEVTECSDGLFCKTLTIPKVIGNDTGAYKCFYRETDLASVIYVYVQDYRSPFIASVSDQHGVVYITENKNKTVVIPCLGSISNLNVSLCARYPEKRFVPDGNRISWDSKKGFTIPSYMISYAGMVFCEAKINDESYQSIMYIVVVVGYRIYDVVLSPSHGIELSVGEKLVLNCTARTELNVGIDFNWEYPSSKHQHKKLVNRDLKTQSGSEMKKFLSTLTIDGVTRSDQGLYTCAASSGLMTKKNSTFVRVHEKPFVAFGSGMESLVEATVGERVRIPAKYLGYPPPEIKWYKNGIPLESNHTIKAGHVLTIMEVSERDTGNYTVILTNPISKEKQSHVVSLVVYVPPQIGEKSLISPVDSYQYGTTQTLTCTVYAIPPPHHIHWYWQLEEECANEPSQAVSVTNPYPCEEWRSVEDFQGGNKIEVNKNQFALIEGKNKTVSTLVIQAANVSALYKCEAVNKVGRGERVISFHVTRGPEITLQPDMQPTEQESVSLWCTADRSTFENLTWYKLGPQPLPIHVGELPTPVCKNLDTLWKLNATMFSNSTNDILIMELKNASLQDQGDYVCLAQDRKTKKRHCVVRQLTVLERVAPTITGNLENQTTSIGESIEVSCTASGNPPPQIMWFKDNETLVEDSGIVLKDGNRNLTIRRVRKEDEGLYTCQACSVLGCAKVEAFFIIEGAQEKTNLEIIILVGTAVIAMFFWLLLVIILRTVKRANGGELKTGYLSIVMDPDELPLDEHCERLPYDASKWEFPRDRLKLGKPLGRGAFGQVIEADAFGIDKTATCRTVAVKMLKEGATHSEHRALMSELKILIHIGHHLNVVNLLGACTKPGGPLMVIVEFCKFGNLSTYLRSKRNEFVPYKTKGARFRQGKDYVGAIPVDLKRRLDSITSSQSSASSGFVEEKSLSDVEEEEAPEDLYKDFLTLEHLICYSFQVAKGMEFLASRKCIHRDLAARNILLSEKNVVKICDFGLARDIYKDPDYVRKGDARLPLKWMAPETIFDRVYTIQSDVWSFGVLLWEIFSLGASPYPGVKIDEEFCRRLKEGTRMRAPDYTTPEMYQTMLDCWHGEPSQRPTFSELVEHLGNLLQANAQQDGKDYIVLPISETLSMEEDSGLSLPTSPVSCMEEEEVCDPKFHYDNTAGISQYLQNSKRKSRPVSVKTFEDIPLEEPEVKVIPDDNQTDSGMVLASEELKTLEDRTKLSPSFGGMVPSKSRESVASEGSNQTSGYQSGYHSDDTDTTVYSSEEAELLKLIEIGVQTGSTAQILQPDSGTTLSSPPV

[9] = biological target: Epidermal growth factor receptor (Homo sapiens, UniProt P00533); type: functional
Epidermal growth factor receptor, sequence (P00533 whole entry): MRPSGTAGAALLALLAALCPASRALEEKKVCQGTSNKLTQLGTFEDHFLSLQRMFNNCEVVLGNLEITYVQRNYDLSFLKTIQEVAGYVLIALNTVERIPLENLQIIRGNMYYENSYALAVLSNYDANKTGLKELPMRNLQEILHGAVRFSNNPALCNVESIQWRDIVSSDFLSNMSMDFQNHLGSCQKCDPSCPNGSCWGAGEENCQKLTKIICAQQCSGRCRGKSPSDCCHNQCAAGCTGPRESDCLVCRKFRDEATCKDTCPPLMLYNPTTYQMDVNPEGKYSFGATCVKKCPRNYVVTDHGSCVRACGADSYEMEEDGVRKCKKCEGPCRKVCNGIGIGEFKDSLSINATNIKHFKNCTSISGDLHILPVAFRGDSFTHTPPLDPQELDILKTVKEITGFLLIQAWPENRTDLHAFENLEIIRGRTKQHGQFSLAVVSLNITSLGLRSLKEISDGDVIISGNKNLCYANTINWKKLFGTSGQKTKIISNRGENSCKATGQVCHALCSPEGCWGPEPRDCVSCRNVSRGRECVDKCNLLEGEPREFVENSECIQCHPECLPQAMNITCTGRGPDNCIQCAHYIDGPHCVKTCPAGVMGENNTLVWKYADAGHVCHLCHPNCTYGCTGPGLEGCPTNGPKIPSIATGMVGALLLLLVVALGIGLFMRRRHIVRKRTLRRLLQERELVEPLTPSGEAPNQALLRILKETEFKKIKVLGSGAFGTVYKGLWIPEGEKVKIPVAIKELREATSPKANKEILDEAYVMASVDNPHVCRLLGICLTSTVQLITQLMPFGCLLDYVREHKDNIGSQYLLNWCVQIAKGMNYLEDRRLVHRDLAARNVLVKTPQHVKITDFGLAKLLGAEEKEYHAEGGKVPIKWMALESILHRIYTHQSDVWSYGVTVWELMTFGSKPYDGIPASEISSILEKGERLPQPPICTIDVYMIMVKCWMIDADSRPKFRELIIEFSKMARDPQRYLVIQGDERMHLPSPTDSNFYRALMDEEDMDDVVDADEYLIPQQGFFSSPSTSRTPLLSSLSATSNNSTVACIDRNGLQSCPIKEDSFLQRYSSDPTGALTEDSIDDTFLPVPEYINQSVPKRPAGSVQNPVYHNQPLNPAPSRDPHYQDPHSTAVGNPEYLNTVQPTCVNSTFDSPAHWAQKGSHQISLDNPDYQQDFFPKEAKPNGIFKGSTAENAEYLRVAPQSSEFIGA
Also: assay procedure not described here.

Gamma-aminobutyric acid type B receptor subunit 1, sequence (Q9UBS5 whole entry): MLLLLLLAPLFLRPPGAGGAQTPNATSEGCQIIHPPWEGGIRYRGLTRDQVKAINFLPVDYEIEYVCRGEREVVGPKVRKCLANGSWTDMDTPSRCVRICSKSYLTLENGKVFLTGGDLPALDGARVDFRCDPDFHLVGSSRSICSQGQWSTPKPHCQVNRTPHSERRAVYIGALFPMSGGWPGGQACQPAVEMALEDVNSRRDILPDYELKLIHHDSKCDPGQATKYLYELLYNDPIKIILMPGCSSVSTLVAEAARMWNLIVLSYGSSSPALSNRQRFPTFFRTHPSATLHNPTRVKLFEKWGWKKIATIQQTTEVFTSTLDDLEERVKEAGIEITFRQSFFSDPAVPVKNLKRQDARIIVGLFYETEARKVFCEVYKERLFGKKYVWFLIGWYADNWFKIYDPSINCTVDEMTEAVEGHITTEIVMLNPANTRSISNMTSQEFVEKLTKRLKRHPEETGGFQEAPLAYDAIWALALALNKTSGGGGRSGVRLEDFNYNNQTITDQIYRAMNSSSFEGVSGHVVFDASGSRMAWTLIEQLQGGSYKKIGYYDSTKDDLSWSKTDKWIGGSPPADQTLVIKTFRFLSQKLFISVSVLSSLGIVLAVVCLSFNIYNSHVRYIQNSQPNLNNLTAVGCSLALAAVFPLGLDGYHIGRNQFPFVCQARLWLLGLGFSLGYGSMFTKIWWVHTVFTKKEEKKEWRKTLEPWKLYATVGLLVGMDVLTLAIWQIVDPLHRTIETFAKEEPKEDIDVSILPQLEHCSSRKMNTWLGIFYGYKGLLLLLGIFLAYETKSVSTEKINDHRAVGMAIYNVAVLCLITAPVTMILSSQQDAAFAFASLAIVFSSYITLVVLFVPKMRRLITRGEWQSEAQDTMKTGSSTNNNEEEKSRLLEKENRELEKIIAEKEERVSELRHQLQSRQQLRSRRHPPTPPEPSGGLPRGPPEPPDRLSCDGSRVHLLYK

| Compound | AC50 (Glucocorticoid receptor [3]) | AC50 [4] | AC50 [6] | AC50 (Mu-type opioid receptor) | other results |
| --- | --- | --- | --- | --- | --- |
| CCOc1nc2cccc(C(=O)O)c2n1Cc1ccc(-c2ccccc2-c2nnn[nH]2)cc1 | > 30 µM | > 30 µM | > 30 µM |  | AC50 [1]: > 10 µM; AC50 [2]: 18 µM; AC50 [5]: > 50 µM; AC50 (Glucocorticoid receptor [7]): > 30 µM |
| CCCc1nc2c(C)cc(-c3nc4ccccc4n3C)cc2n1Cc1ccc(-c2ccccc2C(=O)O)cc1 | > 30 µM | > 30 µM | > 30 µM | 3.7 µM | AC50 [1]: > 10 µM; AC50 [2]: 19 µM; AC50 [5]: 27.3 µM; AC50 (Glucocorticoid receptor [7]): > 30 µM |
| CCOc1cc([C@@H](CS(C)(=O)=O)N2C(=O)c3cccc(NC(C)=O)c3C2=O)ccc1OC |  |  |  |  | AC50 [8]: > 30 µM; AC50 [2]: > 30 µM; AC50 [5]: > 50 µM; AC50 (Glucocorticoid receptor [7]): > 30 µM; AC50 [9]: > 30 µM |
| CC(=O)Nc1ccc(CC(=O)O)cc1 [ACTARIT] | > 30 µM |  |  | > 30 µM |  |
| CC(C(=O)O)c1ccc2oc(-c3ccc(Cl)cc3)nc2c1 (configuration not stated) [BENOXAPROFEN] | > 30 µM |  |  | > 30 µM |  |
| O=C(O)c1ccccc1 [BENZOIC ACID] |  |  |  |  | AC50 [5]: > 50 µM |
| CC1(C)S[C@@H]2[C@H](NC(=O)C(C(=O)O)c3ccccc3)C(=O)N2[C@H]1C(=O)O (some centres not stated) [CARBENICILLIN] | > 30 µM |  |  | > 30 µM | AC50 [2]: > 30 µM |
| Cc1nnc(SCC2=C(C(=O)O)N3C(=O)[C@@H](NC(=O)Cn4cnnn4)[C@H]3SC2)s1 [CEFAZOLIN] |  |  |  | > 30 µM | AC50 [8]: > 300 µM; AC50 [2]: > 300 µM; AC50 [9]: > 300 µM |
| CC=CC1=C(C(=O)O)N2C(=O)[C@@H](NC(=O)[C@H](N)c3ccc(O)cc3)[C@H]2SC1 [CEFPROZIL] | > 30 µM |  |  | > 30 µM |  |
| CC(C)(O/N=C(\C(=O)N[C@@H]1C(=O)N2C(C(=O)[O-])=C(C[n+]3ccccc3)CS[C@H]12)c1csc(N)n1)C(=O)O [CEFTAZIDIME] | > 30 µM |  |  | > 30 µM | AC50 [8]: > 300 µM; AC50 (Glucocorticoid receptor [7]): > 300 µM; AC50 [9]: > 3 µM |
| CC(C)NC(=N)NC(=N)Nc1ccc(Cl)c(Cl)c1 [CHLORPROGUANIL] |  |  |  | > 30 µM |  |
| CCCNC(=O)NS(=O)(=O)c1ccc(Cl)cc1 [CHLORPROPAMIDE] | > 30 µM | > 30 µM | > 30 µM |  |  |
| C[N+](C)(C)CCOP(=O)(O)OP(=O)([O-])OC[C@H]1O[C@@H](n2ccc(N)nc2=O)[C@H](O)[C@@H]1O [CITICOLINE] |  |  |  | > 30 µM |  |
| Clc1ccc(Cn2c(CN3CCCC3)nc3ccccc32)cc1 [CLEMIZOLE] |  |  |  |  | AC50 [8]: > 30 µM; AC50 [2]: > 30 µM; AC50 (Glucocorticoid receptor [7]): > 30 µM; AC50 [9]: > 30 µM |
| CCC(=O)O[C@]1(C(=O)CCl)[C@@H](C)C[C@H]2[C@@H]3CCC4=CC(=O)C=C[C@]4(C)[C@@]3(F)[C@@H](O)C[C@@]21C [CLOBETASOL PROPIONATE] | 0.0078 µM |  |  | > 30 µM | AC50 [2]: 18 µM |
| Cc1nc(Nc2ncc(C(=O)Nc3c(C)cccc3Cl)s2)cc(N2CCN(CCO)CC2)n1 [DASATINIB] |  | > 10 µM | > 10 µM |  | AC50 [1]: > 10 µM |
| CC(C)Cc1ccc([C@H](C)C(=O)O)cc1 [DEXIBUPROFEN] |  |  |  |  | AC50 (Glucocorticoid receptor [7]): > 30 µM |
| O=C(O)Cc1ccccc1Nc1c(Cl)cccc1Cl [DICLOFENAC] |  | > 30 µM | > 30 µM |  | AC50 [1]: > 10 µM; AC50 [5]: > 30 µM |
| CNC[C@H](O)c1ccc(O)c(O)c1 [EPINEPHRINE] |  |  |  |  | AC50 [2]: > 30 µM |

| Compound | AC50 (Glucocorticoid receptor [3]) | AC50 [4] | AC50 [6] | AC50 (Mu-type opioid receptor) | other results |
| --- | --- | --- | --- | --- | --- |
| O=C(O)Cc1ccccc1Oc1ccc(Cl)cc1Cl [FENCLOFENAC] | > 30 µM | > 30 µM | > 30 µM |  |  |
| Cc1onc(-c2c(F)cccc2Cl)c1C(=O)N[C@@H]1C(=O)N2[C@@H]1SC(C)(C)[C@@H]2C(=O)O [FLOXACILLIN] |  |  |  |  | AC50 [8]: > 30 µM; AC50 [2]: > 30 µM; AC50 (Glucocorticoid receptor [7]): > 30 µM; AC50 [9]: > 30 µM |
| Cc1ccc(C)c(OCCCC(C)(C)C(=O)O)c1 [GEMFIBROZIL] |  | > 30 µM | > 30 µM |  | AC50 [1]: > 10 µM |
| COc1ccccc1OC1(C)OC(=O)c2ccccc2O1 (configuration not stated) [GUAIMESAL] | > 30 µM |  |  |  |  |
| CCCCCCCN(CC)CCCC(O)c1ccc(NS(C)(=O)=O)cc1 (configuration not stated) [IBUTILIDE] | > 30 µM |  |  | > 30 µM | AC50 [5]: > 30 µM |
| COc1cc(C(C)=O)ccc1OCCCN1CCC(c2noc3cc(F)ccc23)CC1 [ILOPERIDONE] |  |  |  |  | AC50 [2]: > 30 µM; AC50 (Glucocorticoid receptor [7]): > 30 µM |
| CC[C@H](C)C(=O)O[C@H]1C[C@@H](C)C=C2C=C[C@H](C)[C@H](CC[C@@H]3C[C@@H](O)CC(=O)O3)[C@H]21 [LOVASTATIN] | > 30 µM | > 30 µM | > 30 µM |  | AC50 [5]: > 30 µM |
| CC[C@@H](CO)NC(=O)[C@@H]1C=C2c3cccc4c3c(cn4C)C[C@H]2N(C)C1 [METHYSERGIDE] |  | > 30 µM | > 30 µM |  |  |
| CNC(=C[N+](=O)[O-])NCCSCc1csc(CN(C)C)n1 [NIZATIDINE] | > 10 µM |  |  | > 30 µM |  |
| CN1Cc2c(N)cccc2C(c2ccccc2)C1 (configuration not stated) [NOMIFENSINE] | > 30 µM |  |  | 1.4 µM |  |
| CC(CN1c2ccccc2Sc2ccccc21)N(C)C (configuration not stated) [PROMETHAZINE] |  | > 30 µM | > 30 µM |  |  |
| Cn1cc(C(=O)[C@@H]2CCc3nc[nH]c3C2)c2ccccc21 [RAMOSETRON] | > 30 µM |  |  | > 30 µM |  |
| CN(CCOc1ccc(CC2SC(=O)NC2=O)cc1)c1ccccn1 (configuration not stated) [ROSIGLITAZONE] |  | > 30 µM | > 30 µM | > 30 µM | AC50 [1]: > 10 µM; AC50 [5]: > 30 µM |
| S=P(N1CC1)(N1CC1)N1CC1 [THIOTEPA] |  |  |  |  | AC50 [8]: > 30 µM; AC50 [2]: > 30 µM; AC50 (Glucocorticoid receptor [7]): > 30 µM; AC50 [9]: > 30 µM |
| C[C@]12C=CC(=O)C=C1CC[C@H]1[C@@H]3C[C@@H](O)[C@](O)(C(=O)CO)[C@@]3(C)C[C@H](O)[C@@]12F [TRIAMCINOLONE] | 0.0091 µM |  |  |  | AC50 (Glucocorticoid receptor [7]): > 30 µM |
| CC(C)C[C@H](NC(=O)[C@@H](O)[C@H](N)Cc1ccccc1)C(=O)O [UBENIMEX] | 20 µM |  |  | > 30 µM |  |
| CC(C)[C@H](N)C(=O)OCCOCn1cnc2c(=O)[nH]c(N)nc21 [VALACYCLOVIR] | > 30 µM | > 30 µM | > 30 µM |  |  |
| COc1cc(C(=O)NS(=O)(=O)c2ccccc2C)ccc1Cc1cn(C)c2ccc(NC(=O)OC3CCCC3)cc12 [ZAFIRLUKAST] | 24.9 µM |  |  |  | AC50 (Glucocorticoid receptor [7]): > 30 µM |
| O=C1Cc2cc(CCN3CCN(c4nsc5ccccc45)CC3)c(Cl)cc2N1 [ZIPRASIDONE] | > 30 µM | > 30 µM | > 30 µM |  | AC50 [5]: > 50 µM |
